Measured values taken from patent publication US20230085307A1, “PYRIDAZINONE COMPOUND AND HERBICIDE” (NISSAN CHEMICAL CORPORATION, priority 2019, published 2023).

What was measured:
green foxtail = assay: Test Example 5: herbicidal effect by foliage application, plastic box (Table 20, symbol G); format: in vivo, green foxtail (Setaria viridis); details: evaluated three weeks after application
Outline: (§1)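 Plants sown in sterilized diluvial soil and grown 14 days in a greenhouse at 25° C to 30° C, then sprayed on the foliage with the compound's emulsion diluted in water to a predetermined herbicide amount. Injury to weeds and crops scored three weeks after application on a visual rating scale.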

rice flat sedge = assay: Test Example 3: herbicidal effect by foliage application, Wagner pot (Table 18, symbol E); format: in vivo, rice flat sedge (Cyperus iria)
Outline: (§2)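 Plants were sown in alluvial soil held under 0.1–0.5 cm standing water and grown 14 days in a greenhouse at 25–30 °C. An emulsifiable formulation, water-diluted to the set dose, was then sprayed onto the foliage, and effects were scored three weeks later using previously defined criteria.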

Chinese sprangletop = assay: Test Example 3: herbicidal effect by foliage application, Wagner pot (Table 18, symbol D); format: in vivo, chinese sprangletop (Leptochloa chinensis)
Outline: as §2

Japanese bulrush = assay: Test Example 2: herbicidal activity, application during weed generation under submerged conditions (Table 17, symbol B); format: in vivo, Japanese bulrush (Schoenoplectus juncoides); details: AAH 320 g/ha; application during weed generation, submerged conditions
Outline: (§3)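 Effect on each weed is rated three weeks post-treatment, using the same scoring criteria as the preceding test. Plants grow from mixed-sown seed in flooded alluvial soil (4 cm water) at 25° C. to 30° C., and are treated at one to two leaves with diluted emulsion dropped onto the water.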

late watergrass = assay: Test Example 2: herbicidal activity, application during weed generation under submerged conditions (Table 17, symbol A); format: in vivo, late watergrass (Echinochloa oryzicola); details: AAH 320 g/ha; application during weed generation, submerged conditions
Outline: as §3

redroot pigweed = assay: Test Example 5: herbicidal effect by foliage application, plastic box (Table 20, symbol N); format: in vivo, redroot pigweed (Amaranthus retroflexus); details: evaluated three weeks after application
Outline: as §1

chickweed = assay: Test Example 5: herbicidal effect by foliage application, plastic box (Table 20, symbol P); format: in vivo, common chickweed (Stellaria media); details: evaluated three weeks after application
Outline: as §1

barnyard grass [1] = assay: Test Example 3: herbicidal effect by foliage application, Wagner pot (Table 18, symbol H); format: in vivo, barnyard grass (Echinochloa crus-galli)
Outline: as §2

Italian ryegrass = assay: Test Example 5: herbicidal effect by foliage application, plastic box (Table 20, symbol K); format: in vivo, Italian ryegrass (Lolium multiflorum); details: evaluated three weeks after application
Outline: as §1

windgrass = assay: Test Example 5: herbicidal effect by foliage application, plastic box (Table 20, symbol L); format: in vivo, windgrass (Apera spica-venti); details: evaluated three weeks after application
Outline: as §1

velvetleaf = assay: Test Example 5: herbicidal effect by foliage application, plastic box (Table 20, symbol M); format: in vivo, velvetleaf (Abutilon theophrasti); details: evaluated three weeks after application
Outline: as §1

southern crabgrass = assay: Test Example 5: herbicidal effect by foliage application, plastic box (Table 20, symbol F); format: in vivo, southern crabgrass (Digitaria ciliaris); details: evaluated three weeks after application
Outline: as §1

persian speedwell = assay: Test Example 5: herbicidal effect by foliage application, plastic box (Table 20, symbol R); format: in vivo, Persian speedwell (Veronica persica); details: 320 g/ha, evaluated three weeks after application
Outline: as §1

oval-leafed pondweed = assay: Test Example 2: herbicidal activity, application during weed generation under submerged conditions (Table 17, symbol C); format: in vivo, oval-leafed pondweed (Monochoria vaginalis); details: AAH 320 g/ha; application during weed generation, submerged conditions
Outline: as §3

barnyard grass [2] = assay: Test Example 5: herbicidal effect by foliage application, plastic box (Table 20, symbol H); format: in vivo, barnyard grass (Echinochloa crus-galli); details: evaluated three weeks after application
Outline: as §1

wild oat = assay: Test Example 5: herbicidal effect by foliage application, plastic box (Table 20, symbol I); format: in vivo, wild oat (Avena fatua); details: evaluated three weeks after application
Outline: as §1

blackgrass = assay: Test Example 5: herbicidal effect by foliage application, plastic box (Table 20, symbol J); format: in vivo, blackgrass (Alopecurus myosuroides); details: evaluated three weeks after application
Outline: as §1

lambsquarters = assay: Test Example 5: herbicidal effect by foliage application, plastic box (Table 20, symbol O); format: in vivo, lambsquarters (Chenopodium album); details: evaluated three weeks after application
Outline: as §1

[3] = foliage application, AAH 320 g/ha
[4] = amount of applied herbicide 320 g/ha
[5] = 320 g/ha, foliage application after 14-day growth

Cc1nn(C)c(=O)c(-c2c(-c3ccc(OCc4ccccc4)cc3)sc3ccc(F)cc23)c1OCc1ccccc1 [2-065]
herbicidal effect on G: green foxtail (green foxtail; foliage application, 320 g/ha): 0 (Herbicidal rate of 5% or less (almost no effect))
herbicidal effect on E (rice flat sedge), rating 0-5 (rice flat sedge; 320 g/ha): 3 (Herbicidal rate of 40% or more and less than 70%)
herbicidal effect on D (Chinese sprangletop), rating 0-5 (Chinese sprangletop; 320 g/ha): 3 (Herbicidal rate of 40% or more and less than 70%)
herbicidal effect rating, B: Japanese bulrush (Japanese bulrush): 0 (Herbicidal rate of 5% or less (almost no effect))
herbicidal effect rating, A: late watergrass (late watergrass): 3 (Herbicidal rate of 40% or more and less than 70%)
herbicidal effect on N: redroot pigweed (redroot pigweed; foliage application, 320 g/ha): 3 (Herbicidal rate of 40% or more and less than 70%)
herbicidal effect on P: chickweed (chickweed; foliage application, 320 g/ha): 0 (Herbicidal rate of 5% or less (almost no effect))
herbicidal effect on H (barnyard grass), rating 0-5 (barnyard grass [1]; 320 g/ha): 3 (Herbicidal rate of 40% or more and less than 70%)
herbicidal effect on K: Italian ryegrass (Italian ryegrass; foliage application, 320 g/ha): 0 (Herbicidal rate of 5% or less (almost no effect))
herbicidal effect on L: windgrass (windgrass; foliage application, 320 g/ha): 0 (Herbicidal rate of 5% or less (almost no effect))
herbicidal effect on M: velvetleaf (velvetleaf; foliage application, 320 g/ha): 0 (Herbicidal rate of 5% or less (almost no effect))
herbicidal effect on F: southern crabgrass (southern crabgrass; foliage application, 320 g/ha): 0 (Herbicidal rate of 5% or less (almost no effect))
herbicidal effect on R: persian speedwell (persian speedwell; foliage application): 0 (Herbicidal rate of 5% or less (almost no effect))
herbicidal effect rating, C: oval-leafed pondweed (oval-leafed pondweed): 0 (Herbicidal rate of 5% or less (almost no effect))
herbicidal effect on H: barnyard grass (barnyard grass [2]; foliage application, 320 g/ha): 0 (Herbicidal rate of 5% or less (almost no effect))
herbicidal effect on I: wild oat (wild oat; foliage application, 320 g/ha): 0 (Herbicidal rate of 5% or less (almost no effect))
herbicidal effect on J: blackgrass (blackgrass; foliage application, 320 g/ha): 0 (Herbicidal rate of 5% or less (almost no effect))
herbicidal effect on O: lambsquarters (lambsquarters; foliage application, 320 g/ha): 1 (Herbicidal rate of 5% or more and less than 20%)

COCCOc1cccc(-c2sc3ccc(F)cc3c2-c2c(O)c(C)nn(C)c2=O)c1 [2-271]
G: green foxtail, herbicidal effect (criteria 0-5) (green foxtail; [3]): 0 (Herbicidal rate of 5% or less (almost no effect))
herbicidal effect on E: rice flat sedge (rice flat sedge; [4]): 3 (Herbicidal rate of 40% or more and less than 70%)
herbicidal effect on D: Chinese sprangletop (Chinese sprangletop; [4]): 0 (Herbicidal rate of 5% or less (almost no effect))
herbicidal effect rating, B: Japanese bulrush (Japanese bulrush): 0 (Herbicidal rate of 5% or less (almost no effect))
herbicidal effect rating, A: late watergrass (late watergrass): 3 (Herbicidal rate of 40% or more and less than 70%)
N: redroot pigweed, herbicidal effect (criteria 0-5) (redroot pigweed; [3]): 3 (Herbicidal rate of 40% or more and less than 70%)
P: chickweed, herbicidal effect (criteria 0-5) (chickweed; [3]): 5 (Herbicidal rate of 90% or more (almost completely withered))
herbicidal effect on H: barnyard grass (barnyard grass [1]; [4]): 3 (Herbicidal rate of 40% or more and less than 70%)
K: Italian ryegrass, herbicidal effect (criteria 0-5) (Italian ryegrass; [3]): 0 (Herbicidal rate of 5% or less (almost no effect))
L: windgrass, herbicidal effect (criteria 0-5) (windgrass; [3]): 0 (Herbicidal rate of 5% or less (almost no effect))
M: velvetleaf, herbicidal effect (criteria 0-5) (velvetleaf; [3]): 0 (Herbicidal rate of 5% or less (almost no effect))
F: southern crabgrass, herbicidal effect (criteria 0-5) (southern crabgrass; [3]): 0 (Herbicidal rate of 5% or less (almost no effect))
herbicidal effect rating, C: oval-leafed pondweed (oval-leafed pondweed): 0 (Herbicidal rate of 5% or less (almost no effect))
H: barnyard grass, herbicidal effect (criteria 0-5) (barnyard grass [2]; [3]): 0 (Herbicidal rate of 5% or less (almost no effect))
I: wild oat, herbicidal effect (criteria 0-5) (wild oat; [3]): 0 (Herbicidal rate of 5% or less (almost no effect))
J: blackgrass, herbicidal effect (criteria 0-5) (blackgrass; [3]): 0 (Herbicidal rate of 5% or less (almost no effect))
O: lambsquarters, herbicidal effect (criteria 0-5) (lambsquarters; [3]): 0 (Herbicidal rate of 5% or less (almost no effect))

Cc1ccc(-c2sc3c(Cl)cccc3c2-c2c(O)c(C)nn(C)c2=O)cc1 [4-019]
herbicidal effect on G: green foxtail (evaluation grade 0-5) (green foxtail; [5]): 1 (Herbicidal rate of 5% or more and less than 20%)
herbicidal effect on rice flat sedge (E) (rice flat sedge; 320 g/ha): 5 (Herbicidal rate of 90% or more (almost completely withered))
herbicidal effect on Chinese sprangletop (D) (Chinese sprangletop; 320 g/ha): 4 (Herbicidal rate of 70% or more and less than 90%)
herbicidal effect rating, B: Japanese bulrush (Japanese bulrush): 0 (Herbicidal rate of 5% or less (almost no effect))
herbicidal effect rating, A: late watergrass (late watergrass): 4 (Herbicidal rate of 70% or more and less than 90%)
herbicidal effect on N: redroot pigweed (evaluation grade 0-5) (redroot pigweed; [5]): 5 (Herbicidal rate of 90% or more (almost completely withered))
herbicidal effect on P: chickweed (evaluation grade 0-5) (chickweed; [5]): 5 (Herbicidal rate of 90% or more (almost completely withered))
herbicidal effect on barnyard grass (H) (barnyard grass [1]; 320 g/ha): 3 (Herbicidal rate of 40% or more and less than 70%)
herbicidal effect on K: Italian ryegrass (evaluation grade 0-5) (Italian ryegrass; [5]): 3 (Herbicidal rate of 40% or more and less than 70%)
herbicidal effect on L: windgrass (evaluation grade 0-5) (windgrass; [5]): 1 (Herbicidal rate of 5% or more and less than 20%)
herbicidal effect on M: velvetleaf (evaluation grade 0-5) (velvetleaf; [5]): 5 (Herbicidal rate of 90% or more (almost completely withered))
herbicidal effect on F: southern crabgrass (evaluation grade 0-5) (southern crabgrass; [5]): 0 (Herbicidal rate of 5% or less (almost no effect))
herbicidal effect on R: persian speedwell (evaluation grade 0-5) (persian speedwell; foliage application after 14-day growth): 4 (Herbicidal rate of 70% or more and less than 90%)
herbicidal effect rating, C: oval-leafed pondweed (oval-leafed pondweed): 0 (Herbicidal rate of 5% or less (almost no effect))
herbicidal effect on H: barnyard grass (evaluation grade 0-5) (barnyard grass [2]; [5]): 0 (Herbicidal rate of 5% or less (almost no effect))
herbicidal effect on I: wild oat (evaluation grade 0-5) (wild oat; [5]): 3 (Herbicidal rate of 40% or more and less than 70%)
herbicidal effect on J: blackgrass (evaluation grade 0-5) (blackgrass; [5]): 0 (Herbicidal rate of 5% or less (almost no effect))
herbicidal effect on O: lambsquarters (evaluation grade 0-5) (lambsquarters; [5]): 1 (Herbicidal rate of 5% or more and less than 20%)
